Key:
NK2 receptor = molecular target: T1, NK2 receptor (Mesocricetus auratus, UniProt P51144); assay: NK2 receptor binding: binding of [^125 I]-iodohistidyl neurokinin A (0.1 nM) to hamster urinary bladder membranes
T1 construct: to hamster urinary bladder membranes; from tissue; host or cells: hamster urinary bladder membranes
T1 sequence (P51144 1-384): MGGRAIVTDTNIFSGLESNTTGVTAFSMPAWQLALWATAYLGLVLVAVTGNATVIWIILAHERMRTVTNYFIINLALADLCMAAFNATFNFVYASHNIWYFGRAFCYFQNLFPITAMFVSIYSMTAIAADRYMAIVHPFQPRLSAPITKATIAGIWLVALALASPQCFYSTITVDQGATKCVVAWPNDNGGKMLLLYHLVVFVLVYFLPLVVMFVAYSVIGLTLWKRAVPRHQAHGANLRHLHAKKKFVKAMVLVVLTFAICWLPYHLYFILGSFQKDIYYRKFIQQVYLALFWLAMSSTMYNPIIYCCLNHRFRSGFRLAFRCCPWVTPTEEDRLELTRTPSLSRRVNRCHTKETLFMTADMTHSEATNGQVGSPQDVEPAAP
Experimental: Some of the compounds of the invention were evaluated in tachykinin binding assays.
For the NK2 receptor-measurement of the binding of [^125 I]-iodohistidyl neurokinin A (0.1 nM) to hamster urinary bladder membranes. See Buck and Shatzer, Life Sci., 42:2701 (1988).

NK1 receptor = settings: cited from earlier work; for antagonists at the NK1 receptor: nonpeptide antagonists
NK2 receptors = settings: cited from earlier work

Compound: COc1cccc(COC(=O)NC(Cc2c[nH]c3ccccc23)C(=O)NC(C)(Cc2ccccc2)C(O)CCCO)c1OC (single isomer, unassigned) [Compound XX, Carbamic acid, [2-[[2,5-dihydroxy-1-methyl-1-(phenylmethyl)pentyl]amino]-1-(1H-indol-3-ylmethyl)-2-oxoethyl]-, (2,3-dimethoxyphenyl)methyl ester]
- IC50 (NK2 receptor): 360 nM

Compound: COc1cccc(COC(=O)NC(Cc2c[nH]c3ccccc23)C(=O)NC(C)(Cc2ccccc2)C(O)CCCO)c1OC (single isomer, unassigned) [Compound XXI, Carbamic acid, [2-[[2,5-dihydroxy-1-methyl-1-(phenylmethyl)pentyl]amino]-1-(1H-indol-3-ylmethyl)-2-oxoethyl]-, (2,3-dimethoxyphenyl)methyl ester]
- IC50 (NK2 receptor): 330 nM

Compound: COc1ccccc1CN[C@H]1C2CCN(CC2)[C@H]1C(c1ccccc1)c1ccccc1 [CP-96,345]
- antagonists at the NK1 receptor (NK1 receptor): antagonists at the NK1 receptor

Compound: COc1cccc(COC(=O)N[C@@H](Cc2c[nH]c3ccccc23)C(=O)N[C@@](C)(Cc2ccccc2)C(=O)OCCO)c1OC [Compound IV, L-Phenylalanine, N-[N-[[(2,3-dimethoxyphenyl)methoxy]carbonyl]L-tryptophyl]-α-methyl- , 2-hydroxyethyl ester]
- IC50 (NK2 receptor): 150 nM

Compound: COc1cccc(COC(=O)N[C@@H](Cc2c[nH]c3ccccc23)C(=O)N[C@@](C)(Cc2ccccc2)C(=O)N(C)CCO)c1OC [Compound VII, L-Phenylalaninamide, N-[[(2,3-dimethoxyphenyl)methoxy]-carbonyl]-L-tryptophyl-N-(2-hydroxyethyl)-N,α-dimethyl]
- IC50 (NK2 receptor): > 10000 nM

Compound: COc1cccc(COC(=O)N[C@@H](Cc2c[nH]c3ccccc23)C(=O)N[C@](C)(COCCO)Cc2ccccc2)c1OC [Compound XII, Carbamic acid, [2-[[1-[(2-hydroxyethoxy)methyl]-1-methyl-2-phenylethyl]amino]-1-(1H-indol-3-ylmethyl)-2-oxoethyl]-, (2,3-dimethoxyphenyl)methyl ester, [S-(R*, R*)]-.]
- IC50 (NK2 receptor): 250 nM

Compound: COc1ccccc1CC(=N)N1C[C@@H]2C(=O)CCC(c3ccccc3)(c3ccccc3)[C@@H]2C1 [RP 67580]
- antagonists at the NK1 receptor (NK1 receptor): antagonists at the NK1 receptor

Compound: CC(=O)NC1(c2ccccc2)CCN(CC[C@H](CN(C)C(=O)c2ccccc2)c2ccc(Cl)c(Cl)c2)CC1 [SR 48969]
- affinity and selectivity for NK2 receptors (NK2 receptors): high affinity and selectivity for NK2 receptors

Compound: COc1cccc(COC(=O)N[C@@H](Cc2c[nH]c3ccccc23)C(=O)N[C@@](C)(Cc2ccccc2)C(=O)CCCO)c1OC [XXVI, Carbamic acid, [2-[[5-hydroxy-1-methyl-2-oxo-1-(phenylmethyl)pentyl]amino]-1-(1H-indol-3-ylmethyl)-2-oxoethyl]-, (2,3-dimethoxyphenyl)methyl ester]
- IC50 (NK2 receptor): 22 nM

Compound: substance-P
- affinity for NK1 receptors (NK1 receptor): highest affinity for NK1 receptors
